# Results taken from paper PMC12850010, “Interaction of cytochrome P450 3A4 with the hydrophilic ligand tetraethylene glycol” (Biochemical and biophysical research communications, 2025).
# Tests used:
# CYP3A4 [1] = biological target: T1, CYP3A4 (Homo sapiens, UniProt P08684); assay: Spectral binding (equilibrium) titrations of CYP3A4; settings: for Kd: human, CYP3A4 protein solution (2 μM), sigmoidal (Hill) fit
# Method: (§1) Equilibrium titrations of CYP3A4 were conducted in a Cary 300 spectrophotometer at ambient temperature in 0.1 M phosphate, pH 7.4. […] The binding parameters were determined from fittings to the plot of the absorbance change (peak-to-trough separations in the difference spectra; ΔA) vs ligand concentration.
# CYP3A4 [2] = biological target: T1, CYP3A4; settings: pH 7.4
# Method: as §1
# T1 sequence (P08684 with tags, fused parts or gaps): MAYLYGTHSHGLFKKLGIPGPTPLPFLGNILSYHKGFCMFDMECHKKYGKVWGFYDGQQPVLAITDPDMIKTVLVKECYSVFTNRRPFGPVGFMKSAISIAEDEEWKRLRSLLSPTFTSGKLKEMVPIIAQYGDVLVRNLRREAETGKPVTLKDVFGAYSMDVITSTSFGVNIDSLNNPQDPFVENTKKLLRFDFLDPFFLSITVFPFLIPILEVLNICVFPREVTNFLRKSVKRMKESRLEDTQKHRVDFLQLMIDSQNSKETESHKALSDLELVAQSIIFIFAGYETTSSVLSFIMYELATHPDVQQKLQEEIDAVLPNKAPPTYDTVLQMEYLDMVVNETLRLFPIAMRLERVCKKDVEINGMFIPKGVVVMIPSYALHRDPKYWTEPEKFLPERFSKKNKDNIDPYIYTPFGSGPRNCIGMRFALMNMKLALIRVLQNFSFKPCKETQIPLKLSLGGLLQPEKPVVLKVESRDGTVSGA
SMILES,decrease of binding affinity for WT CYP3A4 in the presence of TEG (CYP3A4 [1]; 15 mM TEG vs no TEG) [%],nH (Hill coefficient) (CYP3A4 [2]),"Kd (CYP3A4 [1]; pH 7.4, S50, 15 mM TEG) [µM]","Kd (CYP3A4 [1]; pH 7.4, S50, no TEG) [µM]"
Cc1ncc2n1-c1ccc(Cl)cc1C(c1ccccc1F)=NC2 [Midazolam],30,,,
CC(=O)[C@H]1CC[C@H]2[C@@H]3CCC4=CC(=O)CC[C@]4(C)[C@H]3CC[C@]12C [Progesterone],,1.6 ± 0.1,16 ± 2,17 ± 1
